{"source": "paper PMC10046369", "about": "“Low-Affinity/High-Selectivity Dopamine Transport Inhibition Sufficient to Rescue Cognitive Functions in the Aging Rat” (Biomolecules, 2023)", "experiment_in_all_cases": "biochemical", "set-up_in_all_cases": "KINOMEscan competition binding panel, per cent of control", "settings_in_all_cases": "read-out: %Ctrl @ 2800nM", "key": {"[1]": {"molecular_target": "MARK2 (Homo sapiens, UniProt Q7KZI7)", "summary_of_the_method": "(§1)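 Competition binding panel (KINOMEscan) across 450 human kinases and disease-relevant mutants, run to the contractor's standard protocol. Values are % control: (test signal − positive control signal)/(negative control signal − positive control signal) × 100, with lower values indicating stronger binding.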"}, "[2]": {"molecular_target": "MAP4K2 (Homo sapiens, UniProt Q12851)", "sequence (Q12851 whole entry)": "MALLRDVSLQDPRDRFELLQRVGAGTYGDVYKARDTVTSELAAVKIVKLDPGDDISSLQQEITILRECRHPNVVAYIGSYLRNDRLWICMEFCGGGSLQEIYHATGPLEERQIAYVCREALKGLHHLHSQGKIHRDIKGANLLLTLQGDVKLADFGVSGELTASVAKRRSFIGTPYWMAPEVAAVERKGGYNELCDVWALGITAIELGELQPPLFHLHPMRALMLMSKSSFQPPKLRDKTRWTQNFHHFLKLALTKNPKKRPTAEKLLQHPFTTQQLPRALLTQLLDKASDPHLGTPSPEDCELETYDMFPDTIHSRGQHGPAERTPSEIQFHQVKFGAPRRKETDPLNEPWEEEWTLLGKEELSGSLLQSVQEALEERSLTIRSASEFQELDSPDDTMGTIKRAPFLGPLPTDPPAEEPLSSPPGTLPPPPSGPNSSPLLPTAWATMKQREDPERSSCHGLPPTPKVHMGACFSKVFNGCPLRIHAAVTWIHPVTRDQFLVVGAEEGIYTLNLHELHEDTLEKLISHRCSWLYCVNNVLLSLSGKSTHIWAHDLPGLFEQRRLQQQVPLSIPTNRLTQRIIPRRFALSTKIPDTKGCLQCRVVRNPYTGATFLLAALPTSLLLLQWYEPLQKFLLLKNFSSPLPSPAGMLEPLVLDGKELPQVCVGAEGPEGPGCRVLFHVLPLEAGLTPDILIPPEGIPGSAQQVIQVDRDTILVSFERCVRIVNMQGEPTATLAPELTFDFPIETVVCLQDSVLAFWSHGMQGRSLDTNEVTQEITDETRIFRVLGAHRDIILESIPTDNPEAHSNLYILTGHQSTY", "summary_of_the_method": "as §1"}, "[3]": {"molecular_target": "PIK3CA(M1043I) (Homo sapiens, UniProt P42336, M1043I)", "summary_of_the_method": "as §1"}, "[4]": {"molecular_target": "PKN2 (Homo sapiens, UniProt Q16513)", "summary_of_the_method": "as §1"}, "[5]": {"molecular_target": "T1, JAK2(JH1domain-catalytic) (Homo sapiens, UniProt O60674)", "T1 construct": "JH1domain-catalytic", "summary_of_the_method": "as §1"}, "[6]": {"molecular_target": "AKT2 (Homo sapiens, UniProt P31751)", "summary_of_the_method": "as §1"}, "[7]": {"molecular_target": "PLK2 (Homo sapiens, UniProt Q9NYY3)", "summary_of_the_method": "as §1"}, "[8]": {"molecular_target": "NEK1 (Homo sapiens, UniProt Q96PY6)", "summary_of_the_method": "as §1"}, "[9]": {"molecular_target": "T2, ABL1(Q252H)-phosphorylated (Homo sapiens, UniProt P00519, Q252H)", "T2 construct": "phosphorylated", "summary_of_the_method": "as §1"}, "[10]": {"molecular_target": "T3, CDC2L2 (Homo sapiens, UniProt Q9UQ88)", "T3 construct": "gene CDK11A", "summary_of_the_method": "as §1"}, "[11]": {"molecular_target": "KIT(A829P) (Homo sapiens, UniProt P10721, A829P)", "sequence (P10721 whole entry A829P)": "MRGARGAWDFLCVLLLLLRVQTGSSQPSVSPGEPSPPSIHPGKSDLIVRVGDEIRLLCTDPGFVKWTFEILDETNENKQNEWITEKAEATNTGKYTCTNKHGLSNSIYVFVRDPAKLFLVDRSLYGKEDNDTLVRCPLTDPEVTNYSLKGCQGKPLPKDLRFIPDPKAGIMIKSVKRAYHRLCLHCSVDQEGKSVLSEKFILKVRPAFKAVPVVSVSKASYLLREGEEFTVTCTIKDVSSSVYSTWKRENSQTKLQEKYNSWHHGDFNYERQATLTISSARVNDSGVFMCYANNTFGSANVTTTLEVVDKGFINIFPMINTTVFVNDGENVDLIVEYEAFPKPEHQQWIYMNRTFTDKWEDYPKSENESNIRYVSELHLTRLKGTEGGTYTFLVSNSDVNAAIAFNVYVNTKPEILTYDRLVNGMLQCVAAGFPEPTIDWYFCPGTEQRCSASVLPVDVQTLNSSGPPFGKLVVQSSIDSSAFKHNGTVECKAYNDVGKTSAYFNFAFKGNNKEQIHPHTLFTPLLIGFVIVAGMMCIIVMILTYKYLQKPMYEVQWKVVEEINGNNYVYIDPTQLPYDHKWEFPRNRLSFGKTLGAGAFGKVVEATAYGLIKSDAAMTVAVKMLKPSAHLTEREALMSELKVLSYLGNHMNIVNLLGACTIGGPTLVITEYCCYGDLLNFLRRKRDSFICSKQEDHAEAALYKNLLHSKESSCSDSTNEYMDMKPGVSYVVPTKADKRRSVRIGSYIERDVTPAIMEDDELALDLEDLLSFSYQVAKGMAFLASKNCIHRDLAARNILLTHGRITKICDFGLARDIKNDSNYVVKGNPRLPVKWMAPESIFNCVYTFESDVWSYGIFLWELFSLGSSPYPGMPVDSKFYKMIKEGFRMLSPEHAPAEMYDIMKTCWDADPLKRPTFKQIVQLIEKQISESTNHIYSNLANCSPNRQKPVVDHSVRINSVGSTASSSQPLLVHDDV", "summary_of_the_method": "as §1"}, "[12]": {"molecular_target": "EGFR(G719S) (Homo sapiens, UniProt P00533, G719S)", "summary_of_the_method": "as §1"}, "[13]": {"molecular_target": "T4, MEK1 (Homo sapiens, UniProt Q02750)", "T4 construct": "gene MAP2K1", "summary_of_the_method": "as §1"}, "[14]": {"molecular_target": "SRC (Homo sapiens, UniProt P12931)", "sequence (P12931 whole entry)": "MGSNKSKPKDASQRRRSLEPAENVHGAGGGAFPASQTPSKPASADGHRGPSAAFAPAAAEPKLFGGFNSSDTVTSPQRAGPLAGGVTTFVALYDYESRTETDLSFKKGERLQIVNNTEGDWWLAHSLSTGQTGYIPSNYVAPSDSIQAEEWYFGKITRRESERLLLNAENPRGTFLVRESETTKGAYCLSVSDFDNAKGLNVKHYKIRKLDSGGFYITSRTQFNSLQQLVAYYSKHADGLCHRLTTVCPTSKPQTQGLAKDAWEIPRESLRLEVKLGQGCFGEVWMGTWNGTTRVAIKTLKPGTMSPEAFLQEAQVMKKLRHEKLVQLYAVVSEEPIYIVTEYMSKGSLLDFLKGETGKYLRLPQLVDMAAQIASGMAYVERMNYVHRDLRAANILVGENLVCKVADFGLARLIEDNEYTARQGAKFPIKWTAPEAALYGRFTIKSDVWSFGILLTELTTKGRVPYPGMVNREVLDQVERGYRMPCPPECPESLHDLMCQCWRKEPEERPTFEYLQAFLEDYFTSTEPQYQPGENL", "summary_of_the_method": "as §1"}, "[15]": {"molecular_target": "ERN1 (Homo sapiens, UniProt O75460)", "sequence (O75460 whole entry)": "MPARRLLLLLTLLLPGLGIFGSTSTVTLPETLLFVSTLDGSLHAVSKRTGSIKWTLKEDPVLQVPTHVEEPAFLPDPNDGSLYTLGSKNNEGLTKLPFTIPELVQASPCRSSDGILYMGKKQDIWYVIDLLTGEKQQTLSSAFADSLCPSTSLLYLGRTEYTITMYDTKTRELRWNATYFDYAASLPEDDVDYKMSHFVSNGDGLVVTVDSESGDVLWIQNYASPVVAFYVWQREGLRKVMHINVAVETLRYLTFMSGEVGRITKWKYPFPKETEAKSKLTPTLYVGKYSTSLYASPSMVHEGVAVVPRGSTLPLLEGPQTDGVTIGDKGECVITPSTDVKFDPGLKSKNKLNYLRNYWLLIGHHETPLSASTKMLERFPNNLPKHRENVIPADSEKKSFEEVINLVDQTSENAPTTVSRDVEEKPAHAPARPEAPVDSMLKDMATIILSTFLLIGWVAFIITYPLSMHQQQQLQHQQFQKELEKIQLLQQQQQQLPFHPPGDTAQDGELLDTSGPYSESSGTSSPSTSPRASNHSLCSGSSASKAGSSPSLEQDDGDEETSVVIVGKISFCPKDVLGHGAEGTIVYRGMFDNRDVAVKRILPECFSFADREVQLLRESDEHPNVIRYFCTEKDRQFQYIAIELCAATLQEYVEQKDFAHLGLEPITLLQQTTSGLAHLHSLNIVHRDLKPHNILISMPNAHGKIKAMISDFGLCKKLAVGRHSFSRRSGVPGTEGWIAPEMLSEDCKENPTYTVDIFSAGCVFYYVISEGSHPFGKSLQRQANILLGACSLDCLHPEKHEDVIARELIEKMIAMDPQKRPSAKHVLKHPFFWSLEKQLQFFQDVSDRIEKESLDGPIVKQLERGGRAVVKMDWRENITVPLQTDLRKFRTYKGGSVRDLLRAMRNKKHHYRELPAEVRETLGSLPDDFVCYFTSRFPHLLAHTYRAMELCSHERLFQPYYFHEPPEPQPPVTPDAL", "summary_of_the_method": "as §1"}, "[16]": {"molecular_target": "T5, RPS6KA5(Kin.Dom.2-C-terminal) (Homo sapiens, UniProt O75582)", "T5 construct": "Kin.Dom.2-C-terminal", "summary_of_the_method": "as §1"}, "[17]": {"molecular_target": "FGR (Homo sapiens, UniProt P09769)", "sequence (P09769 whole entry)": "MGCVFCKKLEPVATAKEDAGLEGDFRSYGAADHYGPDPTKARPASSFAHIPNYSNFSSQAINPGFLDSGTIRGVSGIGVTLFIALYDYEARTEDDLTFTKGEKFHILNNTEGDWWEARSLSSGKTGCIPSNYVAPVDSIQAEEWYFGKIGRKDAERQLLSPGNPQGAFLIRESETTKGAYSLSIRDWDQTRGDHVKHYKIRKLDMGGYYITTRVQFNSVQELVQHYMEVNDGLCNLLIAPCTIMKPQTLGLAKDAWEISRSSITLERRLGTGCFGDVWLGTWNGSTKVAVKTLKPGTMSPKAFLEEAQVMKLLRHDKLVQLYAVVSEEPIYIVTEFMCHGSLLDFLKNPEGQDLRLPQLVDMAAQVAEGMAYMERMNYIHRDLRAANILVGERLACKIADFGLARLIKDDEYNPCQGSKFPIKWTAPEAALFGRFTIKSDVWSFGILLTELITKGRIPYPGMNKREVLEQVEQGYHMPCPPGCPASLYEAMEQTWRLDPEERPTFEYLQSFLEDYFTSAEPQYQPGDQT", "summary_of_the_method": "as §1"}, "[18]": {"molecular_target": "EGFR(L861Q) (Homo sapiens, UniProt P00533, L861Q)", "summary_of_the_method": "as §1"}, "[19]": {"molecular_target": "T6, BRK (Homo sapiens, UniProt Q13882)", "T6 construct": "gene PTK6", "summary_of_the_method": "as §1"}, "[20]": {"molecular_target": "TNNI3K (Homo sapiens, UniProt Q59H18)", "summary_of_the_method": "as §1"}, "[21]": {"molecular_target": "LIMK2 (Homo sapiens, UniProt P53671)", "summary_of_the_method": "as §1"}, "[22]": {"molecular_target": "PLK4 (Homo sapiens, UniProt O00444)", "sequence (O00444 whole entry)": "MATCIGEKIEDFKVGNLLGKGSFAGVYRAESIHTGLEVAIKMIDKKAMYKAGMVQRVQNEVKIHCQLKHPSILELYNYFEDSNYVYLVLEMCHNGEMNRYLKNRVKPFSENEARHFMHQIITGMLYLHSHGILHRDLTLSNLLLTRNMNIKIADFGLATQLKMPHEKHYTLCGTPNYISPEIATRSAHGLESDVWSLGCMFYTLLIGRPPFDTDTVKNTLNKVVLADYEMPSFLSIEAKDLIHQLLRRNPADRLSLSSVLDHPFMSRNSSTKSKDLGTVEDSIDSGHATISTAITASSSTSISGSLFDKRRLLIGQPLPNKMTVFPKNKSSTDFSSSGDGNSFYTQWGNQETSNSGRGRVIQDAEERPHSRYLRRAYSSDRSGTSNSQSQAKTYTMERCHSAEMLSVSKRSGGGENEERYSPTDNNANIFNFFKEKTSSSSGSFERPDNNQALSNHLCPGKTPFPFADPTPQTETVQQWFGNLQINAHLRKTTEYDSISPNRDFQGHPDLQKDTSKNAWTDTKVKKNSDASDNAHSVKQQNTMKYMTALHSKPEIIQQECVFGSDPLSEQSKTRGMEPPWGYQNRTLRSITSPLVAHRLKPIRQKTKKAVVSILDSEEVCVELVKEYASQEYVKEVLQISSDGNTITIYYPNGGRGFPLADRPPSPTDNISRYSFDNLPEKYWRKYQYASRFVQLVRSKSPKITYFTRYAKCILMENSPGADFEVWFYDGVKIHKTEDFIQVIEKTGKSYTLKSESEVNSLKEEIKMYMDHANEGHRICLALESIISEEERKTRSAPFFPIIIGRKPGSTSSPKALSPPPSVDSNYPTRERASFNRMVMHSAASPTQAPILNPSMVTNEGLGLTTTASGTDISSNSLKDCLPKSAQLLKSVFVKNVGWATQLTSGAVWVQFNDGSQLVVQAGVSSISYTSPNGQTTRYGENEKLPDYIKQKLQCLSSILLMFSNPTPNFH", "summary_of_the_method": "as §1"}, "[23]": {"molecular_target": "T7, ABL1(F317L)-phosphorylated (Homo sapiens, UniProt P00519, F317L)", "T7 construct": "phosphorylated", "summary_of_the_method": "as §1"}, "[24]": {"molecular_target": "T8, DRAK2 (Homo sapiens, UniProt O94768)", "T8 construct": "gene STK17B", "summary_of_the_method": "as §1"}, "[25]": {"molecular_target": "EGFR(G719C) (Homo sapiens, UniProt P00533, G719C)", "summary_of_the_method": "as §1"}, "[26]": {"molecular_target": "KIT (Homo sapiens, UniProt P10721)", "sequence (P10721 whole entry)": "as the sequence (P10721 whole entry A829P) above, with P829A counted along it", "summary_of_the_method": "as §1"}}}
{"compound": "[O-][S@@+](Cc1cncs1)C(c1ccccc1)c1ccccc1", "note": "[S-CE-123, (S)-5-((Benzhydrylsulfinyl)Methyl)Thiazole]", "values": [{"measurement": "remaining binding at 2.8 µM", "setting": "[1]", "result": 100, "unit": "%"}, {"measurement": "remaining binding at 2.8 µM", "setting": "[2]", "result": 100, "unit": "%"}, {"measurement": "remaining binding at 2.8 µM", "setting": "[3]", "result": 63, "unit": "%"}, {"measurement": "remaining binding at 2.8 µM", "setting": "[4]", "result": 86, "unit": "%"}, {"measurement": "remaining binding at 2.8 µM", "setting": "[5]", "result": 100, "unit": "%"}, {"measurement": "remaining binding at 2.8 µM", "setting": "[6]", "result": 87, "unit": "%"}, {"measurement": "remaining binding at 2.8 µM", "setting": "[7]", "result": 89, "unit": "%"}, {"measurement": "remaining binding at 2.8 µM", "setting": "[8]", "result": 90, "unit": "%"}, {"measurement": "remaining binding at 2.8 µM", "setting": "[9]", "result": 84, "unit": "%"}, {"measurement": "remaining binding at 2.8 µM", "setting": "[10]", "result": 98, "unit": "%"}, {"measurement": "remaining binding at 2.8 µM", "setting": "[11]", "result": 98, "unit": "%"}, {"measurement": "remaining binding at 2.8 µM", "setting": "[12]", "result": 77, "unit": "%"}, {"measurement": "remaining binding at 2.8 µM", "setting": "[13]", "result": 94, "unit": "%"}, {"measurement": "remaining binding at 2.8 µM", "setting": "[14]", "result": 100, "unit": "%"}, {"measurement": "remaining binding at 2.8 µM", "setting": "[15]", "result": 86, "unit": "%"}, {"measurement": "remaining binding at 2.8 µM", "setting": "[16]", "result": 85, "unit": "%"}, {"measurement": "remaining binding at 2.8 µM", "setting": "[17]", "result": 100, "unit": "%"}, {"measurement": "remaining binding at 2.8 µM", "setting": "[18]", "result": 98, "unit": "%"}, {"measurement": "remaining binding at 2.8 µM", "setting": "[19]", "result": 96, "unit": "%"}, {"measurement": "remaining binding at 2.8 µM", "setting": "[20]", "result": 100, "unit": "%"}, {"measurement": "remaining binding at 2.8 µM", "setting": "[21]", "result": 88, "unit": "%"}, {"measurement": "remaining binding at 2.8 µM", "setting": "[22]", "result": 89, "unit": "%"}, {"measurement": "remaining binding at 2.8 µM", "setting": "[23]", "result": 100, "unit": "%"}, {"measurement": "remaining binding at 2.8 µM", "setting": "[24]", "result": 95, "unit": "%"}, {"measurement": "remaining binding at 2.8 µM", "setting": "[25]", "result": 74, "unit": "%"}, {"measurement": "remaining binding at 2.8 µM", "setting": "[26]", "result": 97, "unit": "%"}]}
